The numbers were not newly measured in patent publication US20030195350A1, “Individualization of therapy with antiviral agents” (priority 2001, published 2003), which cites them from elsewhere.

A word on the EC50: it is the midpoint of the concentration-response curve.

Where two headings read alike, the source gives them in different places.

The conditions of data set [1]: in vivo; cited from earlier work.
Another data set relates to HIV-1. The settings on record: cited from earlier work.
The next data set deals with HIV. The settings on record: cited from earlier work.
For data set [2] the following is noted: in vivo; cited from earlier work. This is another data set of the same source.
For data set [3] the following is noted: cited from earlier work; for AUC (mean±SD): single 600 mg dose, non-fasting.
For the next data set, the system named is HIV isolates. The following applies: one ZDV-resistant HIV isolate in vitro; cited from earlier work.

Regarding `CC(C)c1nc(CN(C)C(=O)N[C@H](C(=O)N[C@@H](Cc2ccccc2)C[C@H](O)[C@H](Cc2ccccc2)NC(=O)OCc2cncs2)C(C)C)cs1` (relative stereo) [ritonavir, 10-Hydroxy-2-methyl-5-(1-methylethyl)-1-[2-(1-methylethyl)-4-thiazolyl]-3,6-dioxo-8,11-bis(phenylmethyl)-2,4,7,12-tetraazatridecan-13-oic acid, 5-thiazolylmethyl ester, [5S-(5R*,8R*,10R*,11R*)]], in data set [1], the “Adverse event: Depression” value was 1.7%, the “Adverse event: Diarrhea” value is recorded as 15.4%, the “Adverse event: Fecal Incontinence” value was 0.0% and the “Adverse event: Vasodilation” value is on record as 1.7%. In the data set with HIV-1 (MT 4 cells, with either zidovudine (ZDV) or didanosine (ddI)), the “effect against HIV-1 in combination” value was “additive effects”. Moreover, the EC50 in the data set with HIV-1 (read-out: average EC50, low passage clinical isolates (n=13)) is 22 nM. The “cumulative incidence of clinical disease progression or death” value in the data set with HIV (double-blind phase of Study 247, 600 mg b.i.d.) is recorded as 26%. Also, the cumulative mortality in the data set on HIV (through end of open-label follow-up phase, Study 247) is reported as 18%. In addition, in data set [2], the “Adverse event: Depression” value was 1.7%, the “Adverse event: Fecal Incontinence” value is listed as 0.0% and the “Adverse event: Vasodilation” value is listed as 1.7%. Besides, in data set [3] (HIV-infected individuals ages 2 to 14 years), the “steady-state oral clearance (CL/F/m^2), pediatric vs adult” value is recorded as “approximately 1.5 times”. Moreover, in data set [3] (in vivo, po), the “dose excreted in the feces” value was 86.4±2.9 % of the dose, the “dose excreted in the feces as unchanged parent drug” value is on record as 33.8±10.8 % of the dose, the “dose excreted into the urine” value is listed as 11.3±2.8 % of the dose and the “dose excreted into the urine as unchanged parent drug” value is 3.5±1.8 % of the dose. Besides, in data set [3] (in vivo, po), the “effect of dilution of oral solution on extent and rate of absorption” value is reported as “did not significantly affect”. The renal clearance result in data set [3] (in vivo) is “negligible”. Also, in data set [3] (oral solution (n=18)), the “AUC (mean±SD)” value was 129.0 ± 39.3 µg·h/mL. In addition, the “AUC (mean±SD)” value in data set [3] (soft gelatin capsule (n=57)) is 121.7 ± 53.8 µg·h/mL. The “susceptibility of ZDV-resistant HIV isolate” value with HIV isolates is on record as “retained full susceptibility”.
